# Reference: paper PMC10906223 (JCI Insight, 2024)
# Where “and” joins values, the source holds several entries; their conditions need not be identical. Equal entries are not always repeated.
# Assays:
# diabetic NOD mice = experiment: Daily body weight in NOD mice; assay type: in vivo, mouse; conditions: for Daily body weight (Figure 7F): Diabetic, WCDD301 treated, in g (unit assumed)
# Experimental: We preweighed WCDD301 into microfuge tubes and reconstituted it using deionized water. Using a 10 μL pipette tip, we placed the calculated dose of WCDD301 (at the volume range of 1–1.5 μL) within the center of pearls. WCDD301 was placed into pearls 30–45 minutes before administration. For oral administration of pearls, we designed an applicator using a disposable plastic transfer pipette and syringe plunger lubricated with olive oil. Food intake and body weight in each experimental group (diabetic WCDD301-treated, diabetic placebo-treated, and nondiabetic placebo-treated NOD mice) were monitored daily for 4 weeks. Urine glucose was measured from individually caged NOD mice (nondiabetic placebo treated n = 2, diabetic placebo treated n = 2, and diabetic WCDD301 treated n = 4, 21–23 weeks old) with metabolic cages. Urine glucose was monitored every 24 hours for 10 days by semiquantitative measurements (P-STICKS, Millpledge Veterinary).
# [1] = system: primary mouse hepatocytes; experiment: Glucose output from primary mouse hepatocytes; assay type: cell-based
# Experimental: Primary hepatocyte culture was performed following previous publications ([63], [64]). Briefly, livers were extracted from C57BL/6J (n = 5), rinsed in HBSS, and minced. The minced tissue was treated with collagenase P solution (9 μg/mL) neutralized by DMEM containing 10% FBS. Following settling of undigested tissue, the supernatant was collected and centrifuged at 490g for 1 minute. The pellet was treated with red blood cell lysis buffer (8.26 g NH4Cl, 1 g NaHCO3, 0.037 g Na2EDTA in 1,000 mL of distilled water) for 3 minutes, diluted with HBSS containing 6% FBS, and centrifuged at 490g for 1 minute. The resulting pellet was washed 2 times using HBSS containing 6% FBS (290g, 1 minute, and 190g, 1 minute) and resuspended in HBSS containing 2% FBS. The procedure was repeated 2 additional times on the undigested tissue. The collected suspension was sequentially filtered through a 500 μm Steel Basket-Strainer (pluriSelect) and Falcon 100 µm Cell Strainer (Corning). After centrifugation (190g, 1 minute), the pellet was resuspended in DMEM (containing 10% FBS, 100 U/mL penicillin, and 100 μg/mL streptomycin), seeded in a 48-well cell culture plate (7.5 × 10^5 cells/ well), and incubated in a cell culture incubator, overnight. Cell viability and attachment were determined by trypan blue staining.
# [2] = system: human donor dispersed islet cells; experiment: Glucagon secretion from healthy human donor dispersed islet cells; assay type: cell-based; parameters: Glucagon secretion: unit not given here
# Experimental: Pancreata of nondiabetic C57BL/6J mice were digested using collagenase P (Roche Diagnostics, catalog 11213873001), and islets were manually picked up using a stereomicroscope (ZEISS Stemi 305). […] Isolated mouse islets or provided human islets were dispersed as described ([28]). Briefly, 100–120 islets were washed 2 times using modified HBSS, then dispersed in 600 μL Accutase (Innovative Cell Technologies, catalog AT-104) by gently pipetting up and down for 7 minutes at 37°C. […] Following refreshing of KRBH, cells were dispensed in 8 microfuge tubes (2,000 cells/tube) and treated with WCDD301, preclustered Ephrin-A5 Fc, or preclustered Fc in the presence or absence of the competitive inhibitor of EphA4 receptor, rhyncophylline ([60]) (MilliporeSigma, catalog SML2345). In the presence or absence of these effectors, secretion assay was performed sequentially as shown in Supplemental Table 5. […] Preclustering of Ephrin-A5 Fc was done by mixing Ephrin-A5 Fc or Fc alone (BioLegend, catalog 790102) with anti-Fc antibody (Invitrogen, catalog A16086) (1:10 molar ratio) 20 minutes before treatment ([62]). […] Shedding of cleaved EphA4 was measured from the cell culture medium. Experiments were performed by dispersion of 200 islets, and EphA4 levels in media were measured by EphA4 ELISA (ABclonal, catalog RK06572).
# The Integrated Islet Distribution Program provided us human donor islets with their characteristics (Supplemental Table 6). Islets were centrifuged at 500g for 3 minutes, resuspended in CMRL 1066 medium (Gibco, catalog 1150-037) containing 11 mM glucose, and rested in an incubator overnight.
# For the hormone secretion assay, islets or dispersed islet cells were adapted in KRBH buffer containing 11 mM glucose for 1 hour. Then, after 2 washes in HBSS containing 11 mM glucose, islets or cells were treated in the following sequential order in the presence or absence of WCDD301: incubation in KRBH (1 mM glucose, 30 minutes) followed by medium collection, incubation in KRBH (11 mM glucose, 30 minutes) followed by medium collection.
structure (smiles),measurement,setting,value
"CC(=O)OCC(N)(COC(C)=O)COC(C)=O [WCDD301, 2-(acetoxymethyl)-2-aminopropane-1,3-diyl diacetate]",Daily body weight (Figure 7F),diabetic NOD mice; Day 1,22.8 and 23.7 and 24.1 and 24.7
same,Daily body weight (Figure 7F),diabetic NOD mice; Day 2,23 and 23.9 and 24.3 and 25.3
same,Daily body weight (Figure 7F),diabetic NOD mice; Day 3,22.6 and 23.4 and 23.9 and 25.3
same,Daily body weight (Figure 7F),diabetic NOD mice; Day 7,22.3 and 23.1 and 23.5 and 24.7
same,Daily body weight (Figure 7F),diabetic NOD mice; Day 8,22.3 and 23.1 and 23.5 and 24.8
same,Daily body weight (Figure 7F),diabetic NOD mice; Day 9,22.6 and 23.4 and 23.9 and 24.8
same,Daily body weight (Figure 7F),diabetic NOD mice; Day 10,22.3 and 23.1 and 23.5 and 24.6
same,Daily body weight (Figure 7F),diabetic NOD mice; Day 11,22.3 and 23.1 and 23.5 and 25.1
same,Daily body weight (Figure 7F),diabetic NOD mice; Day 12,22.4 and 23.2 and 23.7 and 25.4
same,Daily body weight (Figure 7F),diabetic NOD mice; Day 13,22.5 and 23.3 and 23.8 and 25.3
same,Daily body weight (Figure 7F),diabetic NOD mice; Day 14,22.6 and 23.4 and 23.9 and 25.2
same,Daily body weight (Figure 7F),diabetic NOD mice; Day 15,22.9 and 23.8 and 24.2 and 24.7
same,Daily body weight (Figure 7F),diabetic NOD mice; Day 16,23.1 and 24 and 24.4 and 25.6
same,Daily body weight (Figure 7F),diabetic NOD mice; Day 17,23 and 23.9 and 24.3 and 25.3
same,Daily body weight (Figure 7F),diabetic NOD mice; Day 18,22.8 and 23.7 and 24.1 and 25.2
same,Daily body weight (Figure 7F),diabetic NOD mice; Day 19,22.4 and 23.2 and 23.7 and 25.1
same,Daily body weight (Figure 7F),diabetic NOD mice; Day 20,22.6 and 23.4 and 23.9 and 25.7
same,Daily body weight (Figure 7F),diabetic NOD mice; Day 21,22.5 and 23.3 and 23.8 and 25.1
same,Daily body weight (Figure 7F),diabetic NOD mice; Day 22,22.6 and 23.4 and 23.9 and 25.1
same,Daily body weight (Figure 7F),diabetic NOD mice; Day 23,22.4 and 23.2 and 23.7 and 25.1
same,Daily body weight (Figure 7F),diabetic NOD mice; Day 24,22.5 and 23.3 and 23.8 and 25.1
same,Daily body weight (Figure 7F),diabetic NOD mice; Day 25,22.5 and 23.3 and 23.8 and 25.2
same,Daily body weight (Figure 7F),diabetic NOD mice; Day 26,22.3 and 23.1 and 23.5 and 25.4
same,Daily body weight (Figure 7F),diabetic NOD mice; Day 27,22.3 and 23.1 and 23.5 and 25.2
same,Daily body weight (Figure 7F),diabetic NOD mice; Day 28,22.8 and 23.7 and 24.1 and 25.4
same,"Body weight, daily monitoring",diabetic NOD mice; diabetic WCDD301-treated mice,phenotypes similar to nondiabetic placebo-treated mice
same,Glucagon-stimulated glucose output,"[1]; 100 nM glucagon, 3 μM WCDD301",did not alter glucagon-stimulated glucose output
same,Glucose output from hepatocytes (Figure 6G),"[1]; WCDD301 +, Glucagon +",15.2 and 14.9 and 17.2 and 21
same,Effect on glucagon secretion,"[2]; 1, 3 or 6 hours exposure, 1 mM and 11 mM glucose",dose-dependent and time-dependent suppression of glucagon secretion
same,Glucagon secretion,"[2]; 1 hour exposure, WCDD301 0.75 µM, 1 mM (first group), Figure 2A",48.0 and 44.0 and 43.0
same,Glucagon secretion,"[2]; 1 hour exposure, WCDD301 0.75 µM, head printed 1 mM (second group c4-c7), Figure 2A",55.8 and 56.2 and 53.0
same,Glucagon secretion,"[2]; 1 hour exposure, WCDD301 1.5 µM, 1 mM (first group), Figure 2A",41.5 and 42.9 and 40.0
same,Glucagon secretion,"[2]; 1 hour exposure, WCDD301 1.5 µM, head printed 1 mM (second group c4-c7), Figure 2A",50.8 and 55.7 and 48.0
same,Glucagon secretion,"[2]; 1 hour exposure, WCDD301 3 µM, 1 mM (first group), Figure 2A",40.5 and 41.8 and 38.0
same,Glucagon secretion,"[2]; 1 hour exposure, WCDD301 3 µM, head printed 1 mM (second group c4-c7), Figure 2A",49.7 and 48.4 and 44.0
same,Glucagon secretion,"[2]; 3 hours exposure, WCDD301 0.75 µM, 1 mM (first group), Figure 2B",41.6 and 44.5 and 43.0
same,Glucagon secretion,"[2]; 3 hours exposure, WCDD301 0.75 µM, head printed 1 mM (second group c4-c7), Figure 2B",66.0 and 60.4 and 68.0
same,Glucagon secretion,"[2]; 3 hours exposure, WCDD301 1.5 µM, 1 mM (first group), Figure 2B",44.9 and 42.7 and 41.0
same,Glucagon secretion,"[2]; 3 hours exposure, WCDD301 1.5 µM, head printed 1 mM (second group c4-c7), Figure 2B",58.5 and 55.8 and 60.0
same,Glucagon secretion,"[2]; 3 hours exposure, WCDD301 3 µM, 1 mM (first group), Figure 2B",42.4 and 42.3 and 41.0
same,Glucagon secretion,"[2]; 3 hours exposure, WCDD301 3 µM, head printed 1 mM (second group c4-c7), Figure 2B",66.8 and 54.9 and 52.0
same,Glucagon secretion,"[2]; 6 hours exposure, WCDD301 0.75 µM, 1 mM (first group), Figure 2C",42.9 and 40.6 and 44.0
same,Glucagon secretion,"[2]; 6 hours exposure, WCDD301 0.75 µM, head printed 1 mM (second group c4-c7), Figure 2C",67.1 and 76.1 and 81.0
same,Glucagon secretion,"[2]; 6 hours exposure, WCDD301 1.5 µM, 1 mM (first group), Figure 2C",42.5 and 46.0 and 43.0
same,Glucagon secretion,"[2]; 6 hours exposure, WCDD301 1.5 µM, head printed 1 mM (second group c4-c7), Figure 2C",67.6 and 68.1 and 62.0
same,Glucagon secretion,"[2]; 6 hours exposure, WCDD301 3 µM, 1 mM (first group), Figure 2C",39.8 and 39.3 and 37.0
same,Glucagon secretion,"[2]; 6 hours exposure, WCDD301 3 µM, head printed 1 mM (second group c4-c7), Figure 2C",56.5 and 55.1 and 50.0
